Results from publication PMC3951324, “Side Chain Hydrophobicity Modulates Therapeutic Activity and Membrane Selectivity of Antimicrobial Peptide Mastoparan-X” (PLoS ONE, 2014).
Ends that are not written are not given here.

Assays:
[1] = Peptide partitioning by ITC; assay type: physicochemical; details: 37°C
Procedure: (§1) Lipid stock solutions of POPC and POPG were prepared in chloroform∶methanol (9∶1). Mixtures of POPC∶POPG (3∶1) were prepared and the organic solvent was evaporated under a gentle stream of nitrogen. The lipid films were kept in vacuum (P<0.1 Pa) overnight in order to remove the residual solvent. Buffer containing 10 mM HEPES and 100 mM sodium chloride (pH 7.4) was added to the lipid films, and they were hydrated for 60 min followed by extrusion through 100 nm using an Avanti mini-extruder. Dynamic Light Scattering (DLS, Brookhaven Instrument Corporation, ZetaPALS) was used for measuring the liposome size distribution. The effective lipid concentration was determined by inductively coupled plasma atomic emission spectroscopy (ICP-AES Vista AX, Varian).
The partitioning of AMPs onto lipid membranes was investigated by isothermal titration calorimetry (ITC, iTC200, Microcal, 204 µL cell volume). For the peptide analogues MPX, Ala1 and Ala14, 10 mM […] (3∶1) LUVs were injected (19×2 µL) into a 20 µM peptide solution at T = 37°C. The speed of the stirrer was 1000 rpms, and all titration were initiated with a 0.5 µL pre-injection. The heat-traces were integrated using custom made software, and the heat of partitioning was analysed using a partitioning isotherm based on Gouy-Chapman-Stern description of the electrostatic interaction of the peptide and membrane, [32]. The effective charge of the peptide (zeff), the partitioning coefficient of insertion (Kins), the molar enthalpy of partitioning ( [drawing 4] ), and the heat of dilution (qdil) were extracted as fitting parameters. The effective partitioning coefficient was derived as [drawing 5] where F is Faradays constant, [drawing 6] is the electrostatic potential evaluated at the interface of a fully charged membrane (25mol% negative charge before insertion of the first peptide), and R is the ideal gas constant. The instrument was electrically calibrated, and blank titration of LUVs into buffer was performed to ensure that heat of dilution could be modelled as a constant in the data analysis. Each titration was conducted in triplicates.

[2] = obtained via tryptophan fluorescence measurements; cited from earlier work
[3] = tested on: human red blood cells (RBCs); assay: Haemolysis assay; assay type: cell-based
Excerpt: All Fmoc (9H-fluoren-9-yl-methyloxycarbonyl) L-amino acids and HATU (1-[Bis(dimethylamino)methylene]-1H-1,2,3-triazolo[4,5-b]pyridinium 3-oxid hexafluorophosphate, N-[(Dimethylamino)-1H-1,2,3-triazolo-[4,5-b]pyridin-1-ylmethylene]-N-methylmethanaminium hexafluorophosphate N-oxide) were purchased from GLS China (GL Biochem, Shanghai, China). Fmoc-2-amino-decanoic acid was obtained from Watanabe Chemical Industries, Ltd (Hiroshima, Japan). Lys and Trp were side-chain-protected as tert-butoxycarbonyl, Asn was sidechain protected with trityl. Tentagel resin was purchased from NovaBiochem (Merck, Darmstadt, Germany). TFA (trifluoroacetic acid), TIS (triisopropylsilane), HEPES (N-(2-hydroxyethyl)piperazine-N-(2-ethanesulfonic acid)), 2,4,6-collidine and pyrene were purchased from Sigma-Aldrich (Brøndby, Denmark). Pyridine, sodium hydroxide pellets and sodium chloride was purchased from J.T. Baker Chemicals (Phillipsburg, NJ, USA). Filter supports and Hamilton extrusion syringes, POPG (1-palmitoyl-2-oleoyl-sn-glycero-3-[phospho-rac-(1-glycerol)] sodium salt), and POPC (1-palmitoyl-2-oleoyl-sn-glycero-3-phosphocholine) were purchased from Avanti Polar Lipids (Alabaster, AL). All compounds were used without further purification. Membrane filters for extrusion (100 nm pore size, polycarbonate) were purchased from Whatman (Maidstone, UK). Cuvettes (4×10 mm, quartz, Suprasil) were purchased from Hellma (Müllheim, Germany). Purified human erythrocytes for the haemolysis studies were provided by Bioneer (Hørsholm, Denmark), and were stored at 4°C for a maximum of three days before use.
The assay was conducted as described in Etzerodt et al..

[4] = Mode of peptide-membrane interaction gauged by ITC; assay type: physicochemical; details: 20 mM POPC∶POPG (3∶1) LUVs (8 mM for OAMPX) injected 38×1 µL into 100 µM peptide, 37°C, triplicates
Procedure: as §1
The nature of the peptides' membrane interaction was studied as a function of lipid/peptide ratio (L/P) by ITC (iTC200, Microcal). All experiments were conducted by injection of 20 mM LUVs into 100 µM peptide solution. For OAMPX, 8 mM LUVs were used. The experiments were conducted as 38×1 µL injections, T = 37°C, and the speed of the stirrer was 1000 rpms. All titrations were conducted in triplicates.

[5] = tested on: Lactococcus lactis, strain MG1363; assay: Determination of minimal inhibitory concentration (MIC); assay type: cell-based; details: strain MG1363, M9 medium, 30°C, 20 h, shaking; peptide 0.05–50 µM; absorbance 570 nm; triplicates
Procedure: (§2) A stock dilution series with ten points, ranging from 1 µM to 1 mM, was prepared in sterile PBS from freshly dissolved peptides. The dilution series was dispensed in triplicates in 96-deepwell microtiter plates (VWR Denmark, Herlev, Denmark), with 15 µl in each well. Multidispensing with electronic pipettes (Biohit, Tåstrup, Denmark) was used throughout. Lactococcus lactis, strain MG1363 (ATCC, LGC Standards AB, Boras, Sweden) and Escherichia coli, strain INV-α (Invitrogen, Nærum, Denmark) were grown in M9 (Sigma Aldrich, Brøndby, Denmark) and LB medium (Difco, BD Biosciences, Brøndby Denmark), respectively. A single colony was grown overnight at 30°C and 37°C for L.lactis and E.coli respectively. The next day, a fresh culture was started with a twenty-fold dilution of the cells and grown for exactly 60 min (optical density was approximately 0.4 at 570 nm). The cell culture was diluted (300 fold for L.lactis and 1000 fold for E.coli) before adding 150 µl to microtiter plates already containing 15 µl peptide solution and 135 µl fresh medium. […] Plates with L.lactis were sealed with lid and parafilm, and plates with E.coli were sealed with a gas-permeable tape (VWR Denmark, Herlev, Denmark). The plates were incubated at the respective temperatures for 20 hours with shaking (150 rpm). For each measurement, 100 µl of the cell culture was transferred to clear, flat-bottomed microtiter plates, and the absorbance at 570 nm was determined using a Victor3 plate reader (Perkin Elmer, Skovlunde, Denmark). The measurement was conducted in triplicates.

[6] = tested on: Escherichia coli, strain INV-α; assay: as above; assay type: cell-based; details: LB medium, 37°C, 20 h, shaking, peptide 0.05–50 µM, absorbance 570 nm, triplicates
Procedure: as §2

Substance: INWKGIAAMAKKLL-NH2 [MPX, mastoparan X, reference compound]
- effective charge (zeff) of the peptide ([1]; 10 mM POPC∶POPG (3∶1) 100 nm LUVs injected (19×2 µL) into 20 µM peptide, pH 7.4, Gouy-Chapman-Stern fit, triplicates): 2.5±0.1
- partition coefficient of insertion Kins/10^5 ([1]; 10 mM POPC∶POPG (3∶1) LUVs into 20 µM peptide, pH 7.4, Gouy-Chapman-Stern fit, value is Kins divided by 10^5, triplicates): 4.2±0.2
- molar enthalpy of partitioning ([1]; 10 mM POPC∶POPG (3∶1) LUVs into 20 µM peptide, pH 7.4, triplicates): -5.74 ± 0.072 kcal/mol
- effective partition coefficient Keff/10^8 ([1]; derived from Kins, zeff and the surface potential of fully charged membrane (25 mol% negative charge), value is Keff divided by 10^8): 1.6±0.2
- effective charge (previous result) [2]: 1.7
- % haemolysis ([3]; human RBCs, 50 µM peptide): 15%
- H5, concentration at which 5% haemolysis has been obtained ([3]; purified human erythrocytes, assay as in Etzerodt et al. [14]): 18 ± 2 µM
- endpoint of the reversible (secondary) process, lipid/peptide ratio L/P [4]: ~21
- MIC (L. lactis) [5]: 2.5 ± 0.5 µM
- MIC (E. coli) [6]: 8 ± 3 µM
